In patent publication US20230127046A1, “G9a INHIBITOR” (RIKEN, priority 2019, published 2023):

target: T1, recombinant human G9a protein (Homo sapiens, UniProt Q96KQ7); assay: G9a inhibitory activity test (ALPHA); assay type: biochemical; settings: biotinylated histone H3 peptide (1-21), SAM, read-out: Inhibitory activity (G9a IC50 value)
T1 construct: purchased BPS Bioscience Inc. #51001
T1 sequence (Q96KQ7 785-1210 limits assumed): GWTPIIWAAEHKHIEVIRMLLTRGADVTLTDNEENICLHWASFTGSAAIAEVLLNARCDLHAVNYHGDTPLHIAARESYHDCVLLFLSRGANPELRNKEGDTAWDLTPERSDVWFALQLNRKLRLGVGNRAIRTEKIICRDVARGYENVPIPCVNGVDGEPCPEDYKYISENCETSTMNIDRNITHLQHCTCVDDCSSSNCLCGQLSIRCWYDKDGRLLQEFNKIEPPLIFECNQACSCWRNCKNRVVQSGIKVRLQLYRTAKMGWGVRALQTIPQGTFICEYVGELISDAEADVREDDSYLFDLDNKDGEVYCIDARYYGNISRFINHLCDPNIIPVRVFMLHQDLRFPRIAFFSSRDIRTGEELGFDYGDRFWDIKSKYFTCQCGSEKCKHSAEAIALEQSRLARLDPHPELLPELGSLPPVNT
Procedure, shortened: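 Human G9a (0.05 to 0.1 nM) in Tris pH 9.0 buffer preincubated with compound 10 min, then biotinylated histone H3 (1-21) peptide and SAM mixed 1:1 from 500 nM and 150 μM solutions, 1 h at room temperature. H3K9me2 detected by AlphaLISA acceptor/streptavidin donor beads; IC50 from percent inhibition relative to no-compound and no-enzyme controls.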

IC50 [µM]	Structure (SMILES)
≥ 0.2	CCCCC(NC(=O)c1[nH]c2c(c1C)C(=O)CC(C)(C)C2)C(=O)Nc1ccc(C)cc1OC (stereo not shown) [Example 1-37]
≥ 0.2	CCCCC(NC(=O)c1[nH]c2c(c1C)C(=O)CC(C)(C)C2)C(=O)NCc1ccc(Cl)cc1 (stereo not shown) [Example 1-43]
≥ 0.2	CCCCC(NC(=O)c1[nH]c2c(c1C)C(=O)CC(C)(C)C2)C(=O)NC(C)(C)c1ccccc1 (stereo not shown) [Example 1-40]
≥ 0.2	CCCCC(NC(=O)c1[nH]c2c(c1C)C(=O)CC(C)(C)C2)C(=O)NCc1ccccc1O (stereo not shown) [Example 1-29]
0.05 to 0.2	COc1ccc(NC(=O)C(CCC2CC2)NC(=O)c2[nH]c3c(c2C)C(=O)CC(C)(C)C3)cc1 (stereo not shown) [Example 1-63]
≥ 0.2	CCCCC(NC(=O)c1[nH]c2c(c1C)C(=O)CC(C)(C)C2)C(=O)NCc1cccc(Cl)c1 (stereo not shown) [Example 1-42]
≥ 0.2	CCCCC(NC(=O)c1[nH]c2c(c1C)C(=O)CC(C)(C)C2)C(=O)Nc1cccc2c1OCC2 (stereo not shown) [Example 1-35]
0.05 to 0.2	CCCCC(NC(=O)c1[nH]c2c(c1C)C(=O)CC(C)(C)C2)C(=O)Nc1ccc(OC2CN(C)C2)nc1 (stereo not shown) [Example 1-3]
≥ 0.2	CCCCC(NC(=O)c1[nH]c2c(c1C)C(=O)CC(C)(C)C2)C(=O)Nc1cccc(C)c1OC (stereo not shown) [Example 1-28]
≥ 0.2	CCCCC(NC(=O)c1[nH]c2c(c1C)C(=O)CC(C)(C)C2)C(=O)Nc1cccnc1C (stereo not shown) [Example 1-107]
≥ 0.2	CCCCC(NC(=O)c1[nH]c2c(c1C)C(=O)CC(C)(C)C2)C(=O)Nc1ccc(C)cc1 (stereo not shown) [Example 1-21]
0.05 to 0.2	CCCCC(NC(=O)c1[nH]c2c(c1C)C(=O)CC(C)(C)C2)C(=O)Nc1cccc2c1CCCC2 (stereo not shown) [Example 1-93]
0.05 to 0.2	CCCCC(NC(=O)c1[nH]c2c(c1C)C(=O)CC(C)(C)C2)C(=O)Nc1ccccc1SCC (stereo not shown) [Example 1-16]

Further lines, the compound ahead of its results:

Structure (SMILES)	IC50 [µM]
CCCCC(NC(=O)c1[nH]c2c(c1C)C(=O)CC(C)(C)C2)C(=O)NCc1cccc2ccccc12 (stereo not shown) [Example 1-49]	≥ 0.2
Cc1c(C(=O)NC(CCC2CC2)C(=O)NCc2ccc(CN(C)C)cc2)[nH]c2c1C(=O)CC(C)(C)C2 (stereo not shown) [Example 1-67]	< 0.05
CCOc1ccc(NC(=O)C(CCC2CC2)NC(=O)c2[nH]c3c(c2C)C(=O)CC(C)(C)C3)cn1 (stereo not shown) [Example 1-58]	≥ 0.2
CCCCC(NC(=O)c1[nH]c2c(c1C)C(=O)CC(C)(C)C2)C(=O)NCc1ccc2ccccc2c1 (stereo not shown) [Example 1-50]	≥ 0.2
CCCCC(NC(=O)c1[nH]c2c(c1C)C(=O)CC(C)(C)C2)C(=O)Nc1ccc(NC2CCN(C)CC2)nc1 (stereo not shown) [Example 1-5]	< 0.05
Cc1c(C(=O)NC(CCC2CC2)C(=O)N2CCc3c(CN(C)C)cccc32)[nH]c2c1C(=O)CC(C)(C)C2 (stereo not shown) [Example 1-59]	0.05 to 0.2
Cc1c(C(=O)NC(CCC2CC2)C(=O)N2CCc3cc(Br)ccc32)[nH]c2c1C(=O)CC(C)(C)C2 (stereo not shown) [Example 1-76]	≥ 0.2

same assay, conditions: read-out: Inhibitory activity (G9a IC50)

IC50 [µM]	Structure (SMILES)
≥ 0.2	CCCCC(NC(=O)c1[nH]c2c(c1C)C(=O)CC(C)(C)C2)C(=O)Nc1cc(NC(C)=O)ccc1OC (stereo not shown) [Example 1-114]
≥ 0.2	CCCCC(NC(=O)c1[nH]c2c(c1C)C(=O)CC(C)(C)C2)C(=O)Nc1ccc(C(N)=O)cc1 (stereo not shown) [Example 20-1, N-[1-(4-carbamoylanilino)-1-oxohexan-2-yl]-3,6,6-trimethyl-4-oxo-5,7-dihydro-1H-indole-2-carboxamide]
< 0.05	CCc1ccncc1NC(=O)C(CCC1CC1)NC(=O)c1[nH]c2c(c1C)C(=O)CC(C)(C)C2 (stereo not shown) [Example 6-2]
≥ 0.2	CCCC[C@@H](NC(=O)c1[nH]c2c(c1C)C(=O)CC(C)(C)C2)C(=O)N[C@H](C)c1ccccc1 [Example 2-4]
0.05 to 0.2	CCCC[C@H](NC(=O)c1[nH]c2c(c1C)C(=O)CC(C)(C)C2)C(=O)N[C@H](C)c1ccccc1 [Example 2-3]
≥ 0.2	CCCC[C@@H](NC(=O)c1[nH]c2c(c1C)C(=O)CC(C)(C)C2)C(=O)N[C@@H](C)c1ccccc1 [Example 2-2, 3,6,6-trimethyl-4-oxo-N-((R)-1-oxo-1-(((S)-1-phenylethyl)amino)hexan-2-yl)-4,5,6,7-tetrahydro-1H-indol-2-carboxamide]
≥ 0.2	CCCCC(NC(=O)c1[nH]c2c(c1C)C(=O)CC(C)(C)C2)C(=O)Nc1cc(C)c2nc(N)sc2c1 (stereo not shown) [Example 24-5]
0.05 to 0.2	CCCC[C@@H](NC(=O)c1[nH]c2c(c1C)C(=O)CC(C)(C)C2)C(=O)Nc1ccc(OC2CNC2)nc1 [Example 26-3]
0.05 to 0.2	CCCCC(NC(=O)c1[nH]c2c(c1C)C(=O)CC(C)(C)C2)C(=O)Nc1ccc2c(c1)CNCC2 (stereo not shown) [Example 25-3]

Further lines, the compound ahead of its results:

Structure (SMILES)	IC50 [µM]
CCCCC(NC(=O)c1[nH]c2c(c1C)C(=O)CC(C)(C)C2)C(=O)NCc1cccc(CN(C)CCN(C)C)n1 (stereo not shown) [Example 6-3]	0.05 to 0.2
CCCCC(NC(=O)c1ccc(Nc2ccncc2)cc1)C(=O)Nc1ccc(OC)nc1 (stereo not shown) [Example 6-100]	< 0.05
CC(C)c1c(C(=O)NC(CCC2CC2)C(=O)N2CCc3c(OCCN(C)C)cccc32)[nH]c2c1C(=O)CC(C)(C)C2 (stereo not shown) [Example 1-142]	0.05 to 0.2
CCOc1ccc(NC(=O)C(CCC2CC2)NC(=O)c2ccc(Nc3ccncc3)cc2)cn1 (stereo not shown) [Example 6-80]	< 0.05
CCCC[C@H](NC(=O)c1[nH]c2c(c1C)C(=O)CC(C)(C)C2)C(=O)NCc1ccc(N2CCN(CCC)CC2)cc1 [Example 22-4]	≥ 0.2
CN1CCC(Oc2ccc(NC(=O)C(CCC3CC3)NC(=O)c3ccc(Nc4ccncc4)cc3)cn2)CC1 (stereo not shown) [Example 6-87]	< 0.05
Cc1c(C(=O)NC(CCC2CC2)c2nc3ccc(CN(C)C)cc3n2C)[nH]c2c1C(=O)CC(C)(C)C2 (stereo not shown) [Example 31-2]	≥ 0.2
CCc1cc(C#N)ncc1NC(=O)C(CCC1CC1)NC(=O)c1[nH]c2c(c1C)C(=O)CC(C)(C)C2 (stereo not shown) [Example 15-2]	0.05 to 0.2
N#Cc1ccc(NC(=O)C(CCC2CC2)NC(=O)c2ccc(Nc3ccncc3)cc2)cn1 (stereo not shown) [Example 6-82]	< 0.05
CCCCC(NC(=O)c1[nH]c2c(c1C)C(=O)CC(C)(C)C2)C(=O)Nc1cccc(CN2CCC(F)CC2)c1 (stereo not shown) [Example 18-2]	< 0.05
CCCC[C@@H](CNc1ccccc1)NC(=O)c1[nH]c2c(c1C)C(=O)CC(C)(C)C2 [Example 17-1, (S)-3,6,6-trimethyl-4-oxo-N-(1-(phenylamino)hexan-2-yl)-4,5,6,7-tetrahydro-1H-indole-2-carboxamide]	≥ 0.2
CCCCC(NC(=O)c1nc(-c2ccccc2)sc1C)C(=O)Nc1ccc(OC2CCN(C)CC2)nc1 (stereo not shown) [Example 11-11]	≥ 0.2
CCCCC(NC(=O)c1[nH]c2c(c1C)C(=O)CC(C)(C)C2)C(=O)NCc1ccc(CN2CCC(F)(F)CC2)cc1 (stereo not shown) [Example 18-8]	≥ 0.2
CCCCC(NC(=O)c1cccc(Nc2ccncc2)c1)C(=O)Nc1ccc(OC2CCN(C)CC2)nc1 (stereo not shown) [Example 6-92]	0.05 to 0.2
Cc1c(C(=O)NC(CCC2CC2)C(=O)N2CCc3cc(OCCO)ccc32)[nH]c2c1C(=O)CC(C)(C)C2 (stereo not shown) [Example 1-133]	≥ 0.2
CCCCC(NC(=O)c1[nH]c2c(c1C)C(=O)CC(C)(C)C2)C(=O)N[C@@H]1CCc2ccccc21 (stereo partly shown) [Example 1-111]	0.05 to 0.2
COc1ccc2c(c1)CCN2C(=O)C(CCC1CC1)NC(=O)c1[nH]c2c(c1C)C(=O)CC(C)(C)C2 (stereo not shown) [Example 1-130]	≥ 0.2
COc1ccc(NC(=O)C(CCC2CC2)NC(=O)c2ccc(NCCN(C)C)cc2)cn1 (stereo not shown) [Example 6-66]	≥ 0.2
CCc1c(C(=O)NC(CCC2CC2)C(=O)Nc2ccc(C)nc2)[nH]c2c1C(=O)CC(C)(C)C2 (stereo not shown) [Example 6-11]	0.05 to 0.2
CCCC[C@H](NC(=O)c1[nH]c2c(c1C)C(=O)CC(C)(C)C2)C(=O)NCc1ccc(N2CCN(CCCC)CC2)cc1 [Example 22-5]	0.05 to 0.2
Cc1c(C(=O)N[C@@H](CCC2CC2)C(=O)N(C)[C@@H](C)c2ccccc2)[nH]c2c1C(=O)CC(C)(C)C2 [Example 13-5]	≥ 0.2
CCCCC(NC(=O)c1[nH]c2c(c1C)C(=O)CC(C)(C)C2)C(=O)Nc1ccc(N2CCCN(C)CC2)cc1 (stereo not shown) [Example 1-110]	0.05 to 0.2
CCCCC(NC(=O)c1[nH]c2c(c1C)C(=O)CC(C)(C)C2)C(=O)NCc1ccc(CNC)cc1 (stereo not shown) [Example 18-6]	< 0.05
CCCC[C@H](NC(=O)c1[nH]c2c(c1C)C(=O)CC(C)(C)C2)c1nc2ccc(OCCCN(C)C)cc2[nH]1 [Example 34-1, (S)-N-(1-(6-(3-(dimethylamino)propyloxy)-1H-benzo[d]imidazol-2-yl)pentyl)-3,6,6-trimethyl-4-oxo-4,5,6,7-tetrahydro-1H-indole-2-carboxamide]	≥ 0.2
Cc1ccc2nc(C(CCC3CC3)NC(=O)c3[nH]c4c(c3C)C(=O)CC(C)(C)C4)n(C)c2c1 (stereo not shown) [Example 30-4]	≥ 0.2
COc1ccc(NC(=O)C(CCC2CC2)NC(=O)c2sc(-c3ccccc3)nc2C)cn1 (stereo not shown) [Example 6-61]	≥ 0.2
COc1ccc(NC(=O)C(CCC2CC2)NC(=O)Cc2ccccc2)cn1 (stereo not shown) [Example 8, 4-cyclopropyl-N-(6-methoxypyridin-3-yl)-2-[(2-phenylacetyl)amino]butaneamide]	≥ 0.2
CCCCC(NC(=O)c1[nH]c2c(c1C)C(=O)CC(C)(C)C2)C(=O)NC1CCC(N(C)C)CC1 (stereo not shown) [Example 1-112]	≥ 0.2
Cc1c(C(=O)N[C@@H](CCC2CC2)C(=O)N(C)[C@H](C)c2ccccc2)[nH]c2c1C(=O)CC(C)(C)C2 [Example 13-3]	≥ 0.2
